Results on two molecules are retold here after patent publication US11291206B2, “Herbicidal composition comprising cinmethylin and specific pigment synthesis inhibitors” (BASF Agro B.V., priority 2015, dated 2022).

Holding throughout (type): in vivo
Assay [1] deals with Anthemis arvensis. The assay can be described thus: Greenhouse post-emergence herbicidal activity. Particulars: postemergence, ANTAR, 20 DAT. How it is done:
(§1) The test plants have been seeded, separately for each species, in plastic containers in sandy loamy soil containing 5% of organic matter.
(§2) For the post emergence treatment, the plants were first grown to the 2 leaf station (GS 12) and applied at GS 12-19 depending on the species. Here, the herbicidal compositions were suspended or emulsified in water as distribution medium and sprayed using finely distributing nozzels.
(§3) The plants have been cultivated due to their individual requirements at 10-25° C. and 20-35° C. The plants were irrigated due to their necessity.
(§4) The racemic mixture (±)-2-exo-(2-M ethylbenzyloxy)-1-methyl-4-isopropyl-7-oxabicyclo[2.2.1]heptane was used as herbicide A and formulated as emulsifiable concentrates with an active ingredient concentration of 50g/I, 100 g/I or 750 g/I respectively.
(§5) Clomazone (herbicide B.3) was used as wettable powder (WP) formulation having an active ingredient concentration of 50%.
(§6) In the following experiments, the herbicidal activity for the individual herbicidal compositions (solo and mixture applications) was assessed 20 days after treatment (DAT).
(§7) The evaluation for the damage on undesired weeds caused by the chemical compositions was carried out using a scale from 0 to 100%, compared to the untreated control plants. Here, 0 means no damage and 100 means complete destruction of the plants.
(§8) E=X+Y−(X·Y/100) where • X=effect in percent using herbicide A at an application rate a; • Y=effect in percent using herbicide B at application rate b; • E=expected effect (in %) of herbicide A+herbicide B at application rates a+b.
(§9) The value E corresponds to the effect (plant damage or injury) which is to be expected if the activity of the individual compounds is additive.

Assay [2] has as its system Lolium multiflorum. Put plainly: Greenhouse post-emergence herbicidal activity. As to conditions: postemergence, LOLMU, 20 DAT. How it is done: as §1, §2, §3, §4, §5, §6, §7, §8, §9
The test system of assay [3] is Brassica napus. The assay can be described thus: Greenhouse pre-emergence herbicidal activity. Particulars: preemergence, BRSNW, 20 DAT. How it is done: as §1
(§10) The containers were irrigated gently to promote germination and growth and subsequently covered with transparent plastic hoods until the plants had rooted.
as §3, §4, §5, §6, §7, §8, §9

The test system of assay [4] is Papaver rhoeas. Put plainly: Greenhouse pre-emergence herbicidal activity. Particulars: preemergence, PAPRH, 20 DAT. As to the method: as §1, §10, §3, §4, §5, §6, §7, §8, §9
Assay [5] relates to Anthemis arvensis. Put plainly: Greenhouse pre-emergence herbicidal activity. Particulars: preemergence, ANTAR, 20 DAT. As to the method:
as §1, §10, §3, §4, §5, §6, §7, §8, §9

Assay [6] relates to Lolium multiflorum. The assay can be described thus: Greenhouse pre-emergence herbicidal activity. As to conditions: preemergence, LOLMU, 20 DAT. As to the method:
as §1, §10, §3, §4, §5, §6, §7, §8, §9

Assay [7] concerns Geranium dissectum. The assay can be described thus: Greenhouse pre-emergence herbicidal activity. Particulars: preemergence, GERDI, 20 DAT. How it is done: as §1, §10, §3, §4, §5, §6, §7, §8, §9
In assay [8] the test system is Polygonum convolvulus. The assay can be described thus: Greenhouse pre-emergence herbicidal activity. As to conditions: preemergence, POLCO, 20 DAT. How it is done: as §1, §10, §3, §4, §5, §6, §7, §8, §9
[9] abbreviates: solo application herbicide A 125 g ai/ha.
The mark [10] stands for this setting: solo application herbicide A 250 g ai/ha.
The mark [11] stands for this setting: solo application herbicide A 62.5 g ai/ha.
[12] abbreviates: solo application clomazone 750 g ai/ha.
Where [13] appears, read: solo application clomazone 125 g ai/ha.
Where [14] appears, read: solo application clomazone 187.5 g ai/ha.
[15] abbreviates: solo application clomazone 500 g ai/ha.
Where [16] appears, read: solo application clomazone 250 g ai/ha.

Consider `Cc1ccccc1CO[C@@H]1C[C@@]2(C(C)C)CC[C@]1(C)O2` (racemic) [herbicide A, (±)-2-exo-(2-Methylbenzyloxy)-1-methyl-4-isopropyl-7-oxabicyclo[2.2.1]heptane], for which the herbicidal activity was found to be 0% in assay [1] (setting [9]); 40% in assay [1] (setting [10]); 35% in assay [2] (setting [11]); 0% in assay [3] (setting [11]); 15% in assay [3] (setting [10]); 40% in assay [3] (solo application herbicide A 500 g ai/ha). The herbicidal activity is reported as 65% in assay [4] (setting [10]); 0% in assay [5] (setting [11]); 20% in assay [5] (setting [9]); 85% in assay [6] (setting [11]); 70% in assay [7] (setting [11]); 70% in assay [7] (setting [9]). The herbicidal activity in assay [7] (setting [10]) was 70%; in assay [8] (setting [11]) it was 0%.
`CC1(C)CON(Cc2ccccc2Cl)C1=O` [clomazone, 2-(2-chlorobenzyl)-4,4-dimethyl-1,2-oxazolidin-3-one]: the herbicidal activity was 75% in assay [1] (solo application clomazone 375 g ai/ha); 90% in assay [1] (setting [12]); 80% in assay [2] (setting [13]); 90% in assay [2] (setting [14]); 40% in assay [3] (setting [13]); 45% in assay [3] (setting [14]). Also, the herbicidal activity in assay [3] (setting [15]) was determined as 75%; in assay [3] (solo application clomazone 1000 g ai/ha), 90%; in assay [4] (setting [15]), 90%; in assay [5] (setting [13]), 60%; in assay [5] (setting [16]), 85%; in assay [6] (setting [13]), 85%. Further, the herbicidal activity was found to be 30% in assay [7] (setting [13]), 40% in assay [7] (setting [16]), 80% in assay [7] (setting [12]) and 75% in assay [8] (setting [13]).
